For five compounds, EC50 results are on record in US20230108906A1, “SUBSTITUTED BICYCLIC AND TRICYCLIC UREAS AND AMIDES, ANALOGUES THEREOF, AND METHODS USING SAME” (Arbutus Biopharma Corporation, priority 2019, published 2023).

The test system of this assay is HBV rcDNA in HepDE19 cells. The assay is described as follows: HepDE19 assay with bDNA quantitation of HBV rcDNA. The conditions noted are these: inhibition of rcDNA formation in HepDE19 cells (HepG2 derived), Tet-free medium, 7 day incubation, Quantigene 2.0 bDNA readout, top concentration 25 μM, read-out: DE-19bDNA EC50. Type of assay: cell-based, hepatitis B virus (HBV). A digest of the protocol:
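Cytotoxicity run on replicate plates (5,000 cells/well, 4 days, ATP luminescence, CC50), while antiviral plates (50,000 cells/well) received compound for 7 days after tetracycline withdrawal to induce HBV replication. Top dose 25 μM, 8 points, 0.5% DMSO; rcDNA by branched-DNA assay, % inhibition fitted (4-parameter) for EC50 and EC90.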

[1] abbreviates: Hepatitis B virus, HepDE19, 168 h.

Read-outs that look alike come from different tables or passages of the source.

As usually defined, the EC50 is the midpoint of the concentration-response curve.

Consider `CN(C(=O)N1Cc2ccc(Cl)cc2C1)C1CNCc2[nH]c(=O)c3cc(F)c(F)cc3c21` (single isomer, unassigned) [Compound 226, 5-Chloro-N-(8,9-difluoro-6-oxo-1,2,3,4,5,6-hexahydrobenzo[c][1,7]naphthyridin-1-yl)-N-methylisoindoline-2-carboxamide], for which the EC50 under setting [1] was 21000 nM. `CN(C(=O)Nc1ccc(F)c(Cl)c1)C1COCc2[nH]c(=O)c3cc(F)c(F)cc3c21` (racemic) [Compound 24, 3-(3-Chloro-4-fluorophenyl)-1-(8,9-difluoro-6-oxo-1,4,5,6-tetrahydro-2H-pyrano[3,4-c]isoquinolin-1-yl)-1-methylurea]: under setting [1], the EC50 is 10 nM.

As to `CN(C(=O)Nc1ccc(F)c(Cl)c1)C1CNCc2[nH]c(=O)c3cc(F)c(F)cc3c21` (single isomer, unassigned) [Compound 149, 3-(3-Chloro-4-fluorophenyl)-1-(8,9-difluoro-6-oxo-1,2,3,4,5,6-hexahydrobenzo[c][1,7]naphthyridin-1-yl)-1-methylurea], the EC50 came out at 250 nM.

For the compound `CN(C(=O)Nc1ccc(Cl)c(C#N)c1)[C@@H]1COCc2[nH]c(=O)c3cc(F)c(F)cc3c21` [Compound 142, (S)-3-(4-Chloro-3-cyanophenyl)-1-(8,9-difluoro-6-oxo-1,4,5,6-tetrahydro-2H-pyrano[3,4-c]isoquinolin-1-yl)-1-methylurea], the EC50 under setting [1] is 30 nM.

Consider `CC(=O)N1Cc2[nH]c(=O)c3cc(F)ccc3c2C(N(C)C(=O)Nc2ccc(F)c(C#N)c2)C1` (single isomer, unassigned) [Compound 165, 1-(3-Acetyl-8-fluoro-6-oxo-1,2,3,4,5,6-hexahydrobenzo[c][1,7]naphthyridin-1-yl)-3-(3-cyano-4-fluorophenyl)-1-methylurea], for which the EC50 was at least 25000 nM.
